A word on the melting point: it is the temperature, or range, at which the solid turns liquid.

Structures can show the parent of a compound that is named as a salt.

Drawing on patent publication US8450352B2, “Thiazole compounds and their use for inhibiting phosphodiesterase 4, TNF-α, and IL-4” (Otsuka Pharmaceutical Co., Ltd., priority 2004, dated 2013), this text covers melting point for 45 compounds.

The compound `CCOc1ccc(-c2nc(/C=C/C(=O)c3ccccc3O)cs2)cc1OCC` (as salt: hydrobromid) [Example 15] returned a melting point of 126 to 127 °C. Take `COc1ccc(-c2nc(/C=C/C(=O)c3cc(O)cc(O)c3)cs2)cc1OC` (as salt: hydrochloride) [Example 6]: the melting point was 164 to 168 °C. To `COc1ccc(-c2nc(/C=C/C(=O)c3ccc(O)c(O)c3)cs2)cc1OC` (as salt: hydrochloride) [Example 7] belongs 162 to 165 °C; to `CCOc1ccc(-c2nc(/C=C/C(=O)c3cc(Cl)c(N)c(Cl)c3)cs2)cc1OCC` (as salt: hydrochloride) [Example 12], 165 to 168 °C.

Take `CCOc1ccc(-c2nc(CCC(=O)c3ccc(O)c(O)c3)cs2)cc1OCC` (as salt: hydrochloride) [Example 92]: the melting point fell in the range of 153.2 to 153.8 °C. `CCOc1ccc(-c2nc(/C=C/C(=O)c3ccc(OC(C)=O)c(OC(C)=O)c3)cs2)cc1OCC` [Example 8] showed a melting point of 139 to 140 °C. For `CCOc1ccc(-c2nc(/C=C/C(=O)c3c(O)cc(O)cc3O)cs2)cc1OCC` [Example 9] the value was 188 to 189 °C.

`CCOc1ccc(-c2nc(/C=C/C(=O)c3ccc(O)cc3)cs2)cc1OCC` [Example 10] returned a melting point of 133 to 134 °C. To `CCOc1ccc(-c2nc(/C=C/C(=O)c3cc(OC)c(OC)c(OC)c3)cs2)cc1OCC` [Example 11] belongs 155 to 156 °C; to `CCOc1ccc(-c2nc(/C=C/C(=O)c3ccc(OC)c(OC)c3)cs2)cc1OCC` [Example 13], 152 to 153 °C. In the case of `CCOc1ccc(-c2nc(/C=C/C(=O)c3ccccc3)cs2)cc1OCC` [Example 14], the melting point fell in the range of 129 to 130 °C.

In turn, `CCOc1ccc(-c2nc(/C=C/C(=O)c3cccc(O)c3)cs2)cc1OCC` [Example 16] returned a melting point of 144.5 to 146 °C. For the compound `CCOc1ccc(-c2nc(/C=C/C(=O)c3ccc(C(=O)OC)cc3)cs2)cc1OCC` [Example 17], the melting point lay in the range of 150 to 151 °C. `CCOc1ccc(-c2nc(/C=C/C(=O)c3ccc(C#N)cc3)cs2)cc1OCC` [Example 18] had a melting point of 164 to 167 °C. The compound `CCOc1ccc(-c2nc(/C=C/C(=O)c3ccc(O)c(C(=O)O)c3)cs2)cc1OCC` [Example 19] had a melting point of 195 to 196 °C. For the compound `CCOc1ccc(-c2nc(/C=C/C(=O)c3ccc(O)c(C(=O)OC)c3)cs2)cc1OCC` [Example 20], the melting point lay in the range of 161.3 to 162.8 °C. For `CCOc1ccc(-c2nc(/C=C/C(=O)c3ccc(Cl)cc3)cs2)cc1OCC` [Example 21] the value was 131 to 133 °C; for `COc1ccc(-c2nc(/C=C/C(=O)c3cc(C(C)(C)C)c(O)c(C(C)(C)C)c3)cs2)cc1OC` [Example 22], 228 to 230 °C; for `CCOc1ccc(-c2nc(/C=C/C(=O)c3ccc(C(C)=O)cc3)cs2)cc1OCC` [Example 23], 128 to 129 °C.

In the case of `CCOc1ccc(-c2nc(/C=C/C(=O)c3cccc([N+](=O)[O-])c3)cs2)cc1OCC` [Example 24], the melting point fell in the range of 125 to 126 °C. `CCOc1ccc(-c2nc(/C=C/C(=O)c3ccc(F)cc3)cs2)cc1OCC` [Example 25] displayed a melting point of 116 to 121 °C.

Compound `CCOc1ccc(-c2nc(/C=C/C(=O)c3ccc(C)cc3)cs2)cc1OCC` [Example 26] returned a melting point of 124 to 125.5 °C. To `CCOc1ccc(-c2nc(/C=C/C(=O)c3ccccc3[N+](=O)[O-])cs2)cc1OCC` [Example 27] belongs 142 to 143 °C; to `CCOc1ccc(-c2nc(/C=C/C(=O)c3ccc(NC(C)=O)cc3)cs2)cc1OCC` [Example 28], 199.5 to 201.5 °C; to `CCOc1ccc(-c2nc(/C=C/C(=O)c3ccc(Cl)c(Cl)c3)cs2)cc1OCC` [Example 29], 138 to 139 °C. For `CCOc1ccc(-c2nc(/C=C/C(=O)c3ccc(N)cc3)cs2)cc1OCC` [Example 30] the value was 148 to 150 °C. To `CCOc1ccc(C(=O)/C=C/c2csc(-c3ccc(OCC)c(OCC)c3)n2)cc1` [Example 31] belongs 130 to 135 °C. For `CCOc1ccc(-c2nc(/C=C/C(=O)c3ccc([N+](=O)[O-])cc3)cs2)cc1OCC` [Example 32], the melting point is 125 to 127 °C. Turning to `CCOc1ccc(-c2nc(/C=C/C(=O)c3ccccc3C(=O)OC)cs2)cc1OCC` [Example 33], the melting point fell in the range of 132 to 133 °C. Compound `COc1ccc(-c2nc(/C=C/C(=O)c3ccc(O)cc3)cs2)cc1OC` [Example 37] displayed a melting point of 174 to 177 °C. For `COc1ccc(-c2nc(/C=C/C(=O)c3ccc(O)c(C(=O)O)c3)cs2)cc1OC` [Example 39] the value was 227.4 to 228 °C.

Regarding `CCOc1cc(-c2nc(/C=C/C(=O)c3cc(OC)ccc3OC)cs2)ccc1OC` [Example 40], the melting point is 79 to 82 °C. For `CCOc1ccc(-c2nc(CCC(=O)c3nccs3)cs2)cc1OCC` [Example 90, 3-[2-(3,4-diethoxyphenyl)thiazole-4-yl]-1-thiazole-2-yl-1-propanone] the value was 93.1 to 94.4 °C. To `CCOc1ccc(C(=O)CCc2csc(-c3ccc(OC)c(OC)c3)n2)cc1OCC` [Example 93] belongs 141.3 to 142.4 °C. To `COc1ccc(-c2nc(CCC(=O)c3ccc(OC(C)=O)c(OC(C)=O)c3)cs2)cc1OC` [Example 94] belongs 128 to 128.5 °C; to `CCOc1ccc(-c2nc(CCC(=O)c3cc(OC)ccc3OC)cs2)cc1OCC` [Example 95], 97.8 to 98.5 °C. Compound `CCOc1ccc(-c2nc(CCC(=O)c3ccccc3O)cs2)cc1OCC` [Example 98] had a melting point of 113.7 to 114.9 °C. For `CCOc1ccc(-c2nc(CCC(=O)c3ccccc3F)cs2)cc1OCC` [Example 101] the value was 82.5 to 83.5 °C; for `CCOc1ccc(-c2nc(CCC(=O)c3ccccc3Br)cs2)cc1OCC` [Example 103], 66.1 to 67.9 °C; for `CCOc1ccc(-c2nc(CCC(=O)c3ccccc3Cl)cs2)cc1OCC` [Example 104], 64.4 to 65.1 °C.

In turn, `CCOc1ccc(-c2nc(CCC(=O)c3cc(Cl)ccc3OC)cs2)cc1OCC` [Example 108] came in with a melting point of 90.2 to 92 °C. To `CCOc1ccc(-c2nc(CCC(O)c3ccccc3OC)cs2)cc1OCC` (stereo not drawn) [Example 186, 3-[2-(3,4-diethoxyphenyl)thiazole-4-yl]-1-(2-methoxyphenyl)-1-propanol] belongs 78.2 to 79 °C; to `CCOc1ccc(-c2nc(CCC(=O)c3ccccc3C(=O)OC)cs2)cc1OCC` [Example 240, methyl 2-{3-[2-(3,4-diethoxyphenyl)thiazole-4-yl]propionyl}benzoate], 91.7 to 92.9 °C. For `COc1ccc(-c2nc(CC(=O)Cc3ccc(OC(C)=O)c(OC(C)=O)c3)cs2)cc1OC` [Example 242, 3-[2-(3,4-dimethoxyphenyl)thiazole-4-yl]-1-(3,4-diacetoxyphenyl)propanone] the value was 128 to 128.5 °C; for `CCOc1ccc(CC(=O)Cc2csc(-c3ccc(OC)c(OC)c3)n2)cc1OCC` [Example 243, 3-[2-(3,4-dimethoxyphenyl)thiazole-4-yl]-1-(3,4-diethoxyphenyl)propanone], 141.3 to 142.4 °C.
